From US20230085307A1, “PYRIDAZINONE COMPOUND AND HERBICIDE” (NISSAN CHEMICAL CORPORATION, priority 2019, published 2023)

How the values were obtained:
redroot pigweed [1] = test: Test Example 5: herbicidal effect by foliage application, plastic box (Table 20, symbol N); format: in vivo, redroot pigweed (Amaranthus retroflexus); conditions: foliage application, AAH 320 g/ha, three weeks after application
How it was run: (§1)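 Plants sown in sterilized diluvial soil and grown 14 days in a greenhouse at 25° C to 30° C, then sprayed on the foliage with the compound's emulsion diluted in water to a predetermined herbicide amount. Injury to weeds and crops scored three weeks after application on a visual rating scale.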

velvetleaf [2] = test: Test Example 4: herbicidal effect by soil treatment (Table 19, symbol M); format: in vivo, velvetleaf (Abutilon theophrasti); conditions: AAH 320 g/ha
How it was run: (§2)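 Seeds were sown in sterilized diluvial soil and covered with about 1.5 cm of soil. An emulsion formulation diluted with water to a predetermined herbicide amount was sprayed evenly onto the soil surface. Plants grew in a greenhouse at 25° C. to 30° C., and the effect was scored three weeks after application using criteria from an earlier test.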

barnyard grass [3] = test: Test Example 5: herbicidal effect by foliage application, plastic box (Table 20, symbol H); format: in vivo, barnyard grass (Echinochloa crus-galli); conditions: foliage application, AAH 320 g/ha, three weeks after application
How it was run: as §1

barnyard grass [4] = test: Test Example 3: herbicidal effect by foliage application, Wagner pot (Table 18, symbol H); format: in vivo, barnyard grass (Echinochloa crus-galli); conditions: 320 g/ha
How it was run: (§3)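 Plants were sown in alluvial soil held under 0.1–0.5 cm standing water and grown 14 days in a greenhouse at 25–30 °C. An emulsifiable formulation, water-diluted to the set dose, was then sprayed onto the foliage, and effects were scored three weeks later using previously defined criteria.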

wild oat [5] = test: Test Example 5: herbicidal effect by foliage application, plastic box (Table 20, symbol I); format: in vivo, wild oat (Avena fatua); conditions: foliage application, AAH 320 g/ha, three weeks after application
How it was run: as §1

persian speedwell = test: Test Example 5: herbicidal effect by foliage application, plastic box (Table 20, symbol R); format: in vivo, Persian speedwell (Veronica persica); conditions: foliage application, AAH 320 g/ha, three weeks after application
How it was run: as §1

redroot pigweed [6] = test: Test Example 4: herbicidal effect by soil treatment (Table 19, symbol N); format: in vivo, redroot pigweed (Amaranthus retroflexus); conditions: AAH 320 g/ha
How it was run: as §2

wild oat [7] = test: Test Example 4: herbicidal effect by soil treatment (Table 19, symbol I); format: in vivo, wild oat (Avena fatua); conditions: AAH 320 g/ha
Description: (§4) [Test Example 4] Herbicidal Effect Test by Soil Treatment
(§5) Sterilized diluvial soil was placed in a plastic box having a length of 21 cm, a width of 13 cm, and a depth of 7 cm. The seeds of each of southern crabgrass, green foxtail, barnyard grass, wild oat, blackgrass, Italian ryegrass, windgrass, velvetleaf, redroot pigweed, lambsquarters, chickweed, false cleavers, persian speedwell, corn, soybean, rice, wheat, beet, and rapeseed were sowed in a spot-like manner and covered with the soil having a thickness of about 1.5 cm. Subsequently, the emulsion agent of the compound of the present invention prepared according to Formulation Example 2 was diluted with water so as to achieve a predetermined herbicide amount, and the diluted emulsion agent was uniformly applied to the surface of the soil with a small-sized spray. The plastic box was placed in a greenhouse at 25° C. to 30° C. for growth of the plants. Three weeks after the herbicide application, the effect of the herbicide on each plant was evaluated according to the criteria of Test Example 1.

lambsquarters [8] = test: Test Example 4: herbicidal effect by soil treatment (Table 19, symbol O); format: in vivo, lambsquarters (Chenopodium album); conditions: AAH 320 g/ha
How it was run: as §2

windgrass [9] = test: Test Example 4: herbicidal effect by soil treatment (Table 19, symbol L); format: in vivo, windgrass (Apera spica-venti); conditions: AAH 320 g/ha
Description: as §4, §5

green foxtail [10] = test: Test Example 5: herbicidal effect by foliage application, plastic box (Table 20, symbol G); format: in vivo, green foxtail (Setaria viridis); conditions: foliage application, AAH 320 g/ha, three weeks after application
How it was run: as §1

blackgrass [11] = test: Test Example 5: herbicidal effect by foliage application, plastic box (Table 20, symbol J); format: in vivo, blackgrass (Alopecurus myosuroides); conditions: foliage application, AAH 320 g/ha, three weeks after application
How it was run: as §1

barnyard grass [12] = test: Test Example 4: herbicidal effect by soil treatment (Table 19, symbol H); format: in vivo, barnyard grass (Echinochloa crus-galli); conditions: AAH 320 g/ha
How it was run: as §2

windgrass [13] = test: Test Example 5: herbicidal effect by foliage application, plastic box (Table 20, symbol L); format: in vivo, windgrass (Apera spica-venti); conditions: foliage application, AAH 320 g/ha, three weeks after application
How it was run: as §1

lambsquarters [14] = test: Test Example 5: herbicidal effect by foliage application, plastic box (Table 20, symbol O); format: in vivo, lambsquarters (Chenopodium album); conditions: foliage application, AAH 320 g/ha, three weeks after application
How it was run: as §1

Italian ryegrass [15] = test: Test Example 4: herbicidal effect by soil treatment (Table 19, symbol K); format: in vivo, Italian ryegrass (Lolium multiflorum); conditions: AAH 320 g/ha
Description: as §4, §5

blackgrass [16] = test: Test Example 4: herbicidal effect by soil treatment (Table 19, symbol J); format: in vivo, blackgrass (Alopecurus myosuroides); conditions: AAH 320 g/ha
Description: as §4, §5

chickweed [17] = test: Test Example 5: herbicidal effect by foliage application, plastic box (Table 20, symbol P); format: in vivo, common chickweed (Stellaria media); conditions: foliage application, AAH 320 g/ha, three weeks after application
How it was run: as §1

Italian ryegrass [18] = test: Test Example 5: herbicidal effect by foliage application, plastic box (Table 20, symbol K); format: in vivo, Italian ryegrass (Lolium multiflorum); conditions: foliage application, AAH 320 g/ha, three weeks after application
How it was run: as §1

Chinese sprangletop = test: Test Example 3: herbicidal effect by foliage application, Wagner pot (Table 18, symbol D); format: in vivo, chinese sprangletop (Leptochloa chinensis); conditions: 320 g/ha
How it was run: as §3

rice flat sedge = test: Test Example 3: herbicidal effect by foliage application, Wagner pot (Table 18, symbol E); format: in vivo, rice flat sedge (Cyperus iria); conditions: 320 g/ha
How it was run: as §3

chickweed [19] = test: Test Example 4: herbicidal effect by soil treatment (Table 19, symbol P); format: in vivo, common chickweed (Stellaria media); conditions: AAH 320 g/ha
Description: as §4, §5

velvetleaf [20] = test: Test Example 5: herbicidal effect by foliage application, plastic box (Table 20, symbol M); format: in vivo, velvetleaf (Abutilon theophrasti); conditions: foliage application, AAH 320 g/ha, three weeks after application
How it was run: as §1

green foxtail [21] = test: Test Example 4: herbicidal effect by soil treatment (Table 19, symbol G); format: in vivo, green foxtail (Setaria viridis); conditions: AAH 320 g/ha
How it was run: as §2

southern crabgrass [22] = test: Test Example 4: herbicidal effect by soil treatment (Table 19, symbol F); format: in vivo, southern crabgrass (Digitaria ciliaris); conditions: AAH 320 g/ha
How it was run: as §2

southern crabgrass [23] = test: Test Example 5: herbicidal effect by foliage application, plastic box (Table 20, symbol F); format: in vivo, southern crabgrass (Digitaria ciliaris); conditions: foliage application, AAH 320 g/ha, three weeks after application
How it was run: as §1

With `Cc1nn(C)c(=O)c(-c2c(-c3ccc([Si](C)(C)C)cc3)sc3ccccc23)c1O` [1-153] the “N: redroot pigweed, herbicidal effect” value (redroot pigweed [1]) was 5 (Herbicidal rate of 90% or more (almost completely withered)), the “M: velvetleaf, herbicidal effect rating” value (velvetleaf [2]) was 0 (Herbicidal rate of 5% or less (almost no effect)) and the “H: barnyard grass, herbicidal effect” value (barnyard grass [3]) was 0 (Herbicidal rate of 5% or less (almost no effect)). For the same compound, the “herbicidal effect on H (barnyard grass), rating 0-5” value (barnyard grass [4]) was 4 (Herbicidal rate of 70% or more and less than 90%), the “I: wild oat, herbicidal effect” value (wild oat [5]) was 0 (Herbicidal rate of 5% or less (almost no effect)) and the “R: persian speedwell, herbicidal effect” value (persian speedwell) was 5 (Herbicidal rate of 90% or more (almost completely withered)). The “N: redroot pigweed, herbicidal effect rating” value (redroot pigweed [6]) was 3 (Herbicidal rate of 40% or more and less than 70%), the “I: wild oat, herbicidal effect rating” value (wild oat [7]) was 0 (Herbicidal rate of 5% or less (almost no effect)) and the “O: lambsquarters, herbicidal effect rating” value (lambsquarters [8]) was 5 (Herbicidal rate of 90% or more (almost completely withered)). The “L: windgrass, herbicidal effect rating” value (windgrass [9]) was 0 (Herbicidal rate of 5% or less (almost no effect)), the “G: green foxtail, herbicidal effect” value (green foxtail [10]) was 3 (Herbicidal rate of 40% or more and less than 70%) and the “J: blackgrass, herbicidal effect” value (blackgrass [11]) was 0 (Herbicidal rate of 5% or less (almost no effect)). The “H: barnyard grass, herbicidal effect rating” value (barnyard grass [12]) was 0 (Herbicidal rate of 5% or less (almost no effect)), the “L: windgrass, herbicidal effect” value (windgrass [13]) was 0 (Herbicidal rate of 5% or less (almost no effect)) and the “O: lambsquarters, herbicidal effect” value (lambsquarters [14]) was 4 (Herbicidal rate of 70% or more and less than 90%). For the same compound, the “K: Italian ryegrass, herbicidal effect rating” value (Italian ryegrass [15]) was 0 (Herbicidal rate of 5% or less (almost no effect)), the “J: blackgrass, herbicidal effect rating” value (blackgrass [16]) was 0 (Herbicidal rate of 5% or less (almost no effect)) and the “P: chickweed, herbicidal effect” value (chickweed [17]) was 0 (Herbicidal rate of 5% or less (almost no effect)). For the same compound, the “K: Italian ryegrass, herbicidal effect” value (Italian ryegrass [18]) was 0 (Herbicidal rate of 5% or less (almost no effect)), the “herbicidal effect on D (Chinese sprangletop), rating 0-5” value (Chinese sprangletop) was 2 (Herbicidal rate of 20% or more and less than 40%) and the “herbicidal effect on E (rice flat sedge), rating 0-5” value (rice flat sedge) was 3 (Herbicidal rate of 40% or more and less than 70%). The “P: chickweed, herbicidal effect rating” value (chickweed [19]) was 0 (Herbicidal rate of 5% or less (almost no effect)), the “M: velvetleaf, herbicidal effect” value (velvetleaf [20]) was 2 (Herbicidal rate of 20% or more and less than 40%) and the “G: green foxtail, herbicidal effect rating” value (green foxtail [21]) was 3 (Herbicidal rate of 40% or more and less than 70%). For the same compound, the “F: southern crabgrass, herbicidal effect rating” value (southern crabgrass [22]) was 2 (Herbicidal rate of 20% or more and less than 40%) and the “F: southern crabgrass, herbicidal effect” value (southern crabgrass [23]) was 0 (Herbicidal rate of 5% or less (almost no effect)).
